Assay: passive permeability, PAMPA, ADME assay (AID 1508612)
Conditions: pH 7.4, 30.0 min, 50.0 µM

Compound	Papp [×10⁻⁶ cm/s]
COc1cccc(CNc2ccc(S(=O)(=O)Nc3cccc(N4CCNCC4)c3)cc2)c1O	16
CN1CCN(c2ccc(Nc3c4ccccc4nc4ccccc34)cc2)CC1	> 1000
O=C(O)c1cn(C2CC2)c2cc(N3C[C@@H]4C[C@H]3CN4)c(F)cc2c1=O	< 1
CC(=O)c1c(C)[nH]c(C(=O)Nc2cccc(S(=O)(=O)Nc3ccc(Br)cc3)c2)c1C	288
COc1cnccc1-c1nc(Nc2ccc(F)c(F)c2)c2ccccc2n1	3.6
COc1cccc(CNc2ccc(S(=O)(=O)Nc3ccc(C4CCNCC4)cc3)cc2)c1O	1.79
O=C(NCCc1ccccn1)C1CC(=O)N(c2n[nH]c3cc(Br)ccc23)C1 (stereo unspecified)	< 1
C[S+](=O)([O-])c1ccc(-c2nc(C(=O)N3CCOCC3)n3ccncc23)cc1	8.31
O=C(NCc1ccccc1)c1nc(S(=O)(=O)Cc2ccc(F)cc2)ncc1Cl	350
COc1cccc(CN2CCCC(c3nc(-c4ccncc4)ncc3-c3ccccc3)C2)c1O (stereo unspecified)	> 1000
Nc1ncnc2c1ncn2[C@H]1O[C@@H](CO)[C@@H](O)[C@H]1N	2.99
CCc1ccc(C2C(C(=O)Nc3ccccc3OC)=C(C)Nc3c(C(=O)Nc4ccc(C)cc4)cnn32)cc1 (stereo unspecified)	547
O=C(Nc1ccc2oc(-c3ccccc3F)nc2c1)c1ccc([N+](=O)[O-])o1	38.4
Cc1ccc(S(=O)(=O)Nc2ccncc2C(=O)Nc2nc(-c3ccccc3)cs2)cc1	< 1
Cn1c(=O)c2cc(C(=O)NCCCN3CCN(c4ccccc4F)CC3)sc2c2ccccc21	> 1000
O=C(Nc1cccc(C(F)(F)F)c1)c1ccccc1NC(=O)C1CCCCC1	< 1
Cc1ccc2c(c1)[nH]c1c(N3CCN(Cc4ccccc4)CC3)ncnc12	> 1000
CN(C)CCNC(=O)c1nc(-c2ccccc2)cc2[nH]ccc12	838
COc1ccc(CCNC(=O)Cn2c(=O)c3cccn3c3ccc(F)cc32)cc1OC	442
Cc1cc(N)c2cc(NC(=O)Nc3ccc4nc(C)cc(N)c4c3)ccc2n1	< 1
CC1(COc2ccc3c(c2)ncn3-c2ccc3cccc(N4CCC(N)CC4)c3n2)COC1	25.2
Cc1ccnc(NC(=S)N2CCC(Nc3cccc(C(F)(F)F)c3)CC2)c1	835
CS(=O)(=O)c1cccc(-c2csc(N3CCC(C(N)=O)CC3)n2)c1	49.1
CCOc1ccc(CCNC(=O)c2cc3ncccc3n2Cc2cccc(C)n2)cc1OCC	491
O=C1CCCC2=C1C(c1ccccc1Cl)N=C(Nc1nc3ccccc3o1)N2 (stereo unspecified)	> 1000
CC(=O)Nc1cccc(Nc2nc3ccccc3n3c(C)nnc23)c1	266

Compound	Papp [×10⁻⁶ cm/s]
Cc1ccc(-c2cc(C(=O)NCc3cnn(C)c3)c3cc(Br)ccc3n2)cc1	24.2
Cc1nn2c(c1-c1ccccc1Oc1ccccc1)N(Cc1ccccc1O)CCC2	> 1000
Cc1ccc(O)c(-c2cc(-c3ccccc3C)[nH]n2)c1	511
Cc1cc(F)ccc1-c1nc(NCCN=C(N)NC#N)nc2c1ccc(=O)n2-c1c(F)cccc1F	< 1
CC(=O)c1c(C)[nH]c(C(=O)Nc2ccc(OCCCN(C)C)c(S(=O)(=O)Nc3ccc(Br)cc3)c2)c1C	74.7
COc1cccc(CNc2ccc(S(=O)(=O)Nc3cccc4ccccc34)cc2)c1O	< 1
Brc1ccc(-c2csc(N3CCC(c4nn[nH]n4)CC3)n2)cc1	141
CC[S+](=O)([O-])Nc1ccccc1C(=O)Nc1nc(-c2ccccc2)cs1	512
CC(NCc1ccc2c(c1)nc(NC(=O)c1ccc(-c3cn[nH]c3)s1)n2CC(C)(C)O)C(C)(C)C (stereo unspecified)	820
CCc1ccc(OC(C)C(=O)N2CCC(c3nc4ccccc4o3)CC2)cc1 (stereo unspecified)	> 1000
COc1ccc(OC)c(-c2nc3c(C#N)c[nH]n3c2NC2CCCCC2)c1	> 1000
Cc1ccc(S(=O)(=O)Nc2cnccc2C(=O)Nc2nc(-c3ccc(Cl)cc3)cs2)cc1	38.2
COc1ccc(S(=O)(=O)N(C(=O)C(C)C)c2ccc3oc(=O)sc3c2)cc1	658
Cc1[nH]c2ccccc2c1CN1CCN(c2ccccn2)CC1	> 1000
c1ccc(-c2ccc(CNc3nc(-c4ccccn4)nnc3-c3ccccc3)cc2)cc1	> 1000
CCOc1cc(-c2nccc3cc(OC)c(OC)cc23)cc(OCC)c1OCC	> 1000
Cc1cc(-c2nnc3n2CCCCC3)c(C)n1-c1cccc(Cl)c1	> 1000
Cc1cc(C)nc(NC(=S)N2CCN(Cc3ccc(C(F)(F)F)cc3)CC2)c1	> 1000
CC(C)c1ccccc1-c1ncc(F)c(NC2(c3ccc(-c4cccnc4)cc3)CC2)n1	> 1000
CCc1ccc(NC(=O)c2[nH]c(C)c(C(C)=O)c2C)cc1[S+](=O)([O-])Nc1ccccc1C#N	74.2
NC(=O)C1CCN(c2nc(-c3ccc4c(c3)OCCO4)cs2)CC1	669
CCOc1ccc(CCNC(=O)c2cc3sccc3n2CCN2CCOCC2)cc1OCC	> 1000
Cc1cccc(-c2noc([C@@H]3Cc4nc[nH]c4CN3C(=O)CC(C)(C)CC(=O)O)n2)c1	34.2
O=C(NCCCn1ccnc1)c1ccc(-c2ncc3cnc(-c4cccc(F)c4)cn23)cc1	< 1
Cc1n[nH]c(C)c1CCc1nc2c3ccccc3nc(SCC(=O)Nc3ccc(F)cc3)n2n1	122
O=C(Cc1ccc2ccccc2c1)Nc1ccc(S(=O)(=O)Nc2nccs2)cc1	16.9

Compound	Papp [×10⁻⁶ cm/s]
O=C(Nc1nc(-c2ccccc2)cs1)c1ccncc1NS(=O)(=O)c1ccc(F)c(F)c1	> 1000
O=C(O)c1ccnc(-c2cc(C(=O)NCCc3ccccc3)ccn2)c1	< 1
Cc1sc2c(c1C)C(c1ccc(Cl)cc1)=N[C@H](CC(=O)NCCCCNC(=O)COc1cccc3c1C(=O)N([C@H]1CCC(=O)NC1=O)C3=O)c1nnc(C)n1-2	< 1
CC(C)(C)NS(=O)(=O)c1ccc(-c2ccc3[nH]nc(N)c3c2)cc1	564
O=[S+]([O-])(Nc1ccc(N2CCNCC2)cc1)c1ccc(NCc2ccc(Cl)cc2O)cc1	6.78
CNc1nc(-c2ccc3c(N)n[nH]c3c2)cc(N2C[C@@H](C(=O)NC3CCCCC3)CC[C@@H]2C)n1	14.4
O=C(O)c1ccc(-c2c[nH]c3ncc(-c4ccccc4)cc23)cc1C1CCCC1	400
COc1cc(-c2csc(N3CCC(C(N)=O)CC3)n2)cc(OC)c1OC	257
[2H]C([2H])(Nc1nc(-c2ccccc2C([2H])(C([2H])([2H])[2H])C([2H])([2H])[2H])ncc1C)c1ccc(-n2ccnn2)cc1	> 1000
O=c1cc(N2CCOCC2)oc2c1ccc1ccccc12	294
CCc1c(C)nc2c(-c3cnn(-c4cc(CO)ccn4)c3)c[nH]n2c1=O	1.62
Cc1ccc(S(=O)(=O)Nc2cnccc2C(=O)Nc2ccc(S(=O)(=O)Nc3nccs3)cc2)cc1	< 1
COCCNc1ncnc2onc(-c3ccc(F)cc3)c12	458
CCOc1ccc(NC(=O)c2ccc(F)c(S(=O)(=O)N(CC)Cc3ccccc3)c2)cc1	< 1
Fc1cccc(-c2ccc(Nc3nc(-c4ccncc4)nc4ccccc34)cc2F)c1	49
Oc1cccc2nc3ccccc3nc12	513
CCC[C@H](NC(=O)C(C#N)=Cc1cccc(Br)n1)c1ccccc1	> 1000
c1ccc2c(NC3CCCCC3)nc(-c3ccncc3)nc2c1	> 1000
CCNc1oc(-c2cccc3ccccc23)nc1C#N	728
CCOc1ccc(CCNC(=O)c2cc3cnccc3n2Cc2cccc(C)n2)cc1OCC	7.02
COc1ccc(CN2CCc3c(c(=O)n4ncc(C(=O)N5CCN(c6ccccc6OC)CC5)c4n3C)C2)cc1	445
COC(=O)CNC(=O)c1nc(-c2ccc([S+](C)(=O)[O-])cc2)c2ccccn12	330
COc1ccc(OC)c(-n2c3c(cc(-c4nc(-c5ccc(Cl)cc5)cs4)c2=O)C(=O)CC(C)(C)C3)c1	216
CC1=C(C(=O)Nc2nncs2)C(c2nn(C)cc2Cl)N=C(Nc2nc3ccccc3o2)N1 (stereo unspecified)	> 1000
COc1ccccc1NC(=O)C1=C(C)Nc2c(C(=O)Nc3ccc(F)cc3)cnn2C1c1ccc(Cl)cc1 (stereo unspecified)	302
c1ccc(-c2nnc3n2NC(c2ccc4c(c2)OCO4)S3)cc1 (stereo unspecified)	607

Compound	Papp [×10⁻⁶ cm/s]
CCCCn1cc2c(c1-c1ccc(Br)cc1)c(=O)n(C)c(=O)n2C	> 1000
CCOC(=O)N1CCN(Cc2nc3c(c(=O)n(C)c(=O)n3C)n2Cc2cccc(C)c2)CC1	477
Cc1cc(C)nc(NC(=S)N2CCN(c3cc(C(F)(F)F)nc4ccc(C(F)(F)F)cc34)CC2)c1	636
O=C(Cc1ccc(O)cc1)N1CC(CNc2ccccc2)C2(C1)CN(c1ccccc1)C2 (stereo unspecified)	197
COc1ccc(NC(=O)c2c(C)cccc2C)cc1S(=O)(=O)Nc1ccc(Br)cc1	581
O=C(NCCc1ccc(OCC(F)(F)F)c(OCC(F)(F)F)c1)c1cc2sccc2n1Cc1ccccc1	24.5
Cc1nc([C@](C)(O)CO)sc1-c1cnc(N)c(O[C@H](C)c2cc(F)ccc2-n2nccn2)c1	414
Cc1nc(-c2ccccc2)cc([C@H]2CN3CC[C@H]2C[C@@H]3CNC2CCOCC2)n1	369
Cc1ccccc1C(=O)Nc1ccc2c(c1)CCCN2C(=O)c1cccs1	687
CC1=C(C(=O)Nc2nc3ccccc3s2)C(c2[nH]ncc2Cl)N=C(Nc2nc3ccccc3o2)N1 (stereo unspecified)	6
Oc1ccc(-c2nc(C3CC3)nc3c2CCN(Cc2ccc(F)cc2)CC3)cc1	> 1000
O=C1Nc2ccccc2C12CC2c1cc(Cl)c(O)c(Cl)c1 (stereo unspecified)	278
O=C(CCCc1ccc2cccnc2n1)NCc1cc(-c2ccc(F)c(C(F)(F)F)c2)no1	> 1000
O=c1[nH]cnc2c1ccn2C1OC(CO)C(O)C1O (stereo unspecified)	3.01
Cc1cn(CCN2CCN(c3ccccc3-c3cc(C#N)cc(C(=O)NCCCN4CCCC4)c3)CC2)c2ccccc12	< 1
OCC(O)CCO/N=C1/C(c2c(O)[nH]c3ccccc23)=Nc2ccccc21 (stereo unspecified)	961
NC1CCC(Nc2nc(Nc3ccc(C(=O)N4CCCCC4)cc3)c3ncn(-c4cccc(F)c4)c3n2)CC1 (stereo unspecified)	21.8
COC(=O)c1ccc(O)c2ncc(N3CCN(C)CC3)cc12	845
Cc1ccc(C(=O)N2CCc3sc(C(=O)NC(C)c4ccccc4)cc3C2)cc1 (stereo unspecified)	799
CCOc1ccc(CCNC(=O)c2ccc3ccccc3n2)cc1OCC	> 1000
Cc1ccc(-c2c(CN3CCN(c4cccc(C(F)(F)F)c4)CC3)csc2C)cc1	< 1
Fc1cc(Nc2nc(-c3ccncc3)nc3ccccc23)ccc1-c1cn[nH]c1	36.1
COc1ccc(OCc2ccc(-c3nc(C#N)c(NC(C)c4ccccc4)o3)o2)cc1 (stereo unspecified)	20.9
